The numbers were not newly measured in article PMC4402028 (Journal of Clinical Pharmacology, 2015), which cites them from elsewhere.

For this data set, the system named is MRP2. The conditions noted are these: read-out: Ki for MRP2; cited from earlier work.

Turning to `CCCN(CCC)S(=O)(=O)c1ccc(C(=O)O)cc1` [probenecid], the Ki was 44.6 µM.

What is called Ki is the equilibrium dissociation constant of an inhibitor or competing ligand from its target.
